Assay results reported in US11426444B2, “Compositions, methods and uses for treating post-traumatic stress disorder” (priority 2017, dated 2022).
Ends that are not written are not given here.

Assays:
Male, Swiss Webster mice = assay: Naloxone-precipitated morphine withdrawal, CRH driven rodent model 2 (Example 6); type: in vivo, mouse
Description: A similar study was performed using a CRH antagonist (CP154, 526) in the precipitated withdrawal model.
Male, Swiss Webster mice were treated with seven (7) doses of Morphine 3.2 mg/kg i.p. (d1×5 and d2×2). Animals were then administered a test substance subcutaneously one hour after the last morphine injection with either: (i) nothing (morphine only); (ii) CRH antagonist (CP154, 526) or (iii) TCAP-1 and then an hour after the test substance the animals were administered naloxone i.p at 10 mg/kg, to induce withdrawal.
Two hours after last morphine treatment (i.e. after administration of Naloxone) the mice were immediately placed individually in an observation area and video recorded 20 minutes. The number of jumps (lifting of all feet off the ground) documented for 20 minutes.
(For description on CP154, 526 see for example, CNS Drug Reviews, Vol. 9, No. 1, pp 57-96, Seymour, Patricia A., et al, “The Pharmacology of CP-154,526, A Non-Peptide Antagonist of the CRH1 Receptor: A Review, incorporated herein by reference.)

[1] = system: Male adult Sprague-Dawley rats; assay: Modified Open Field Test with noise pollution (Example 1); type: in vivo, rat
Excerpt: Male adult Sprague-Dawley rats (˜350 g) treated for 3 months (1 injection/week) with either vehicle (0.9% saline) or TCAP-1 (25 nmoles/kg) were used in Example 1.
Behaviour—Modified Open Field Test
The Open Field Test is a behavioral test paradigm used to investigate anxiety-related behaviours in rodents (Bailey K R and Crawley J N, 2009, in: Buccafusco J J, editor. Source Methods of Behavior Analysis in Neuroscience. 2nd edition. Boca Raton (Fla.): CRC Press/Taylor & Francis; 2009. Chapter 5.). In this experiment, the animals were exposed to high frequency noise pollution to induce a stress response while the animals were in the OFT apparatus. The test was performed one week post last injection of the long-term (3 month) treatment with either vehicle (0.9% saline) or TCAP-1 (25 nmoles/kg). Animals were individually placed in a plexiglass box (50 L×50 W) and digitally recorded and tracked for five (5) minutes. In the centre of the box is a designated section termed the centre zone. Behaviours are then analyzed from videos and recorded for time spent in centre zone, distance travelled in centre zone, and total distance travelled. Moreover, peering behaviour, grooming behaviour, and rearing behaviour were also analyzed (definitions below).
(a) Peering: Digital recordings were analyzed for Peering behaviour. Peering behaviour was defined as the specific notion where animals would stand on their back hind limbs in order to look over the side of the glass wall (i.e, The event where an animal rears specifically to peer over the side of the apparatus). This behaviour can be interpreted as an explorative or anti-fear response.
(b) Grooming: Digital recordings were analyzed for Grooming behaviour. Grooming behaviour was defined as the animals cleaning their face or bodies, i.e., the event where an animal grooms himself (usually his hands and face).
(c) Rearing: Digital recordings were analyzed for Rearing behaviour. Rearing behaviour was defined as an event where animals stand on their hind limbs (i.e., the event where an animal gets on his hind limbs in exploration). This behaviour is interpreted as an explorative behaviour, which is a low anxiety response.
Animals were digitally recorded and tracked for five (5) minutes in the Open Field Test with noise pollution. The noise pollution was large construction noise, intermittent and not at predictable intervals. […] As rearing behaviour is highly associated with anti-anxious behaviour, this corroborates the data indicating TCAP-1 is reducing stress-related behaviour.

C57Bl/6J mice [2] = assay: Chronic social defeat (CSD) model (Example 3); type: in vivo, mouse; details: subcutaneous once a day days 1-7; for attack latency (time between retreat and evaluating the predator): FIG. 8
Excerpt: (§1) The mouse chronic social defeat (“CSD”) model has been accepted as a model of PTSD [Flandreau, et al, 2018]. This model involves exposure of C57Bl/6J mice to chronic stress by aggressor mice (male CD-1 ex-breeders) for a defined period of 15 days. Starting from day 15, mice were further tested in the open field (OF) model.
Experimental Set Up of Mice.
CD-1 mice were housed, one mouse per cage, during the experiments. C57Bl/6J mice were housed in pairs while not subjected to CSD. Mice are acclimated to the animal facility for minimum 5 days before the onset of the study.
CD-1 aggressor mice are determined by using the procedures by Golden et al. (2011). Screening involves three days of selection testing. After the screening and selection of 80 aggressor mice, the chronic social defeat (CSD) paradigm was conducted.
The CSD mouse group were subcutaneously injected once a day with vehicle or TCAP-1 days 1-7.
Under dim lighting a CSD mouse was subjected to direct exposure with a CD-1 aggressor mouse. […] The latency to the first attack was also recorded, and time needed to gain 60 s physical attack time. After the 10 min session, CSD mice were exposed to CD-1 mice through perforated transparent divider for 24 h. If the CD-1 mice are very aggressive (if wounding consistently exceeds veterinary guidelines), the exposure time can be shortened to 5 min or less.
This setup allows direct and continued olfactory, visual, auditory exposure for the rest of the day. On the following day, a CSD mouse is placed in a cage in similar fashion with 10 min direct exposure followed by chronic exposure through divider. Cycle is repeated for 15 days, replacing the […] with a new one every day until day 15. Thereafter, CSD mice remain caged next to the same CD-1 mice without any further attack sessions or rotations for days 16-17.
Attack latency is the period between retreat and confrontation. […] Aggressive contact time reflects the number of direct contacts. FIG. 9 illustrates that administration of TCAP-1, the animal will approach the predator and not retreat.

C57Bl/6J mice [3] = assay: Open field motor activity (OF) after CSD (Example 4); type: in vivo, mouse; details: 15 min open field
Description: as §1
Behavioral tests such as Open field motor activity (OF) were also conducted. See the schematic of FIG. 7.
In this model set up the test was conducted 15 days after the last CSD session. The mouse was placed on the Open Field apparatus floor in the center of empty arena for 15 min without exposure to any other stimuli. The following parameters were calculated from the data: distance moved, number of vertical rearing's, velocity and % resting time (no movement activity). Open field activity chambers (Med Associates Inc, St Albans, Vt.; 27×27×20.3 cm) are equipped with IR beams with red light conditions. A mouse is considered to have no movement activity when the mouse is not breaking two adjacent beams consecutively (distance between two adjacent beams is about 1.7 cm).

Swiss Webster mice = assay: Naloxone-precipitated morphine withdrawal, CRH driven rodent model 1 (Example 5); type: in vivo, mouse
Description: In one model, Swiss Webster mice were stressed following chronic opiate administration.
In this Example, TCAP-1 was administered at the graded doses, daily for three days prior to administration of morphine. Morphine was then administered at 3.2 mg/kg i.p. on day 4 (5 times) and 5 (twice), and then one hour the last dose of morphine, naloxone is administered i.p at 10 mg/kg, to induce withdrawal.
One hour after last morphine treatment (i.e. after administration of Naloxone) the mice were immediately placed individually in an observation area and video recorded 20 minutes. The number of jumps (lifting of all feet off the ground) documented for 20 minutes

Swiss Webster mice (SW) = assay: Restraint stress model, corticosterone (Example 7, FIG. 14 A); type: in vivo, mouse; details: restraint 30-60 minutes on successive days; dosed once at day 1 and day 2; effect in 5 days
Description: (§2) The inventors, extended the behavioural activity in a severe restraint model the changes in a stress related biomarker such as corticosterone is depicted in FIG. 14. (See for example de Pablos, R. N. et al (2014), Creating a Rat model of Chronic Variate Stress. Bio-protocol 4(23): e1315.DOI).
(§3) In this model animals, Swiss Webster mice (SW) (FIG. 14 A) and Sprague-Dawley rat (SD) (FIG. 14 B) were restrained in confined spaces for upwards of 30-60 minutes on successive days. TCAP-1 was administered once at day 1 and at day 2 in the 5-day model.

Sprague-Dawley rat (SD) = assay: Restraint stress model, corticosterone (Example 7, FIG. 14 B); type: in vivo; details: amidated human TCAP-1 (SEQ ID NO: 2); restraint 30-60 minutes on successive days; dosed at day 1 and day 2; effect within 3 days
Excerpt: Amidated mouse TCAP-1 (SEQ ID NO: 1) was suspended in 0.9% saline. [[…], Ambiopharm] for subcutaneous injection in the interscapular region and used in Examples 1, Amidated human TCAP-1 (SEQ ID NO: 2) was suspended in 0.9% saline. [10 nmol/Kg, Ambiopharm] was used in Example 7, for the SD-rat (FIG. 14 B).
as §2, §3

[4] = 25 nmoles/kg, 1 injection/week for 3 months, 5 min, vs vehicle

Row | Compound | symptomology of precipitated withdrawal (Male, Swiss Webster mice; small molecule CRH antagonist, 20 mg/Kg subcutaneously) | time in the centre zone ([1]; 25 nmoles/kg, 1 injection/week for 3 months, tested one week post last injection, 5 min, vs vehicle) | entries into centre zone [1, 4] | grooming behaviour [1, 4] | peering behaviour [1, 4] | rearing behaviour [1, 4] | stress-related behaviour in the Open Field Test with noise pollution ([1]; chronic TCAP-1 administration) | attack latency (time between retreat and evaluating the predator) (C57Bl/6J mice [2]) | attack latency (time between retreat and evaluating the predator) (C57Bl/6J mice [2]; listed as TCAp-1) | aggressive contact time (number of direct contacts) (C57Bl/6J mice [2]; FIG. 9) | anxiety toward surroundings (C57Bl/6J mice [3]) | number of vertical rearings (C57Bl/6J mice [3]; FIG. 10) | jumping activity (number of jumps per 20 minutes) following naloxone (Swiss Webster mice; graded doses daily for three days prior to morphine 3.2 mg/kg i.p., naloxone 10 mg/kg i.p., FIG. 12) | symptomology of precipitated withdrawal (Swiss Webster mice; mice stressed following chronic opiate administration) | number of jumps per 20 minutes after naloxone (Male, Swiss Webster mice; TCAP-1 250 nmole/Kg subcutaneously one hour after last morphine, versus CP154, 526 at 20 mg/Kg, FIG. 13) | rise in corticosterone (Swiss Webster mice (SW)) | rise in corticosterone (Sprague-Dawley rat (SD))
1 | CCCCN(CC)c1nc(C)nc2c1c(C)cn2-c1c(C)cc(C)cc1C [CP154, 526, reference compound] | limited success | – | – | – | – | – | – | – | – | – | – | – | – | – | – | – | –
2 | Teneurin C-Terminal Associated Peptide-1 (QQLLGTGRVQGYDGYFVLSVEQYLELSDSANNIHFMRQSEI-NH2; not fully specified) [TCAP-1] | – | significantly more time in the centre zone | more entries into centre zone | not found to be significantly different between groups | not found to be significantly different between groups | significantly increased | significantly decreased stress-related behaviour | attack latency increased | reduces the time between retreat and evaluating the predator | increased | reduced anxiety toward their surroundings | reduced rearing events were observed | dose dependent reduction in jumping activity | efficiently modulated | efficacy | modulated the rise in corticosterone | modulated the rise in corticosterone
